# Assays:
# conscious rats = test: Ringer's solution time control during chronic infusion of porcine RLX; format: in vivo, rat; settings: RLX 4 μg/hour s.c. day 5
# Protocol: At least 7 days after the implantation of vascular and bladder catheters, osmotic minipumps containing either porcine RLX (4 μg/hour) or vehicle (Ringer's solution) were implanted in intact, female rats (n=7 and 6 rats, respectively). Renal function and MAP were measured on day 5 of relaxin infusion (three 30-minute urine and midpoint blood collections). Next, an infusion of L-NAME (2 μg/minute, a substrate competitive inhibitor of NO synthase) was administered intravenously (i.v.) by infusion pump (Model 200, KD Scientific, Boston, Mass.). Four 1-hour urine collections with midpoint blood samples were collected for the assessment of GFR, ERPF, and ERVR during the L-NAME administration. Identical procedures were performed on additional animals chronically administered porcine RLX (n=5) or vehicle (n=5), except that ANG II (3 ng/minute) was infused rather than L-NAME. Finally, another four, age-matched control rats were administered Ringer's solution instead of either L-NAME or ANG II on day 5 of porcine RLX infusion.
# Another group of rats chronically treated with porcine RLX was administered Ringer's solution instead of L-NAME or ANG II, and thus served as time controls. Neither MAP nor any of the renal parameters were consistently altered over the 6 hours or so of vehicle infusion, as shown in Table 3. Values are provided as mean±SEM. Relaxin, RLX. n=4 rats. Ringer's solution was infused at the same flow rate as L-NAME (Table 1) or ANG II (Table 2), 12.5 μl/min. RLX was infused at 4 μg/hour by osmotic minipump s.c.
# human cardiac cells = test: Cellular proliferation by 3H-thymidine incorporation in cardiac cells; format: cell-based
# Protocol: To determine if the effects of relaxin observed in the rat were also seen in human cells, total RNA from cardiac cells was extracted following treatment of cells with 1, 10, and 100 ng/ml relaxin for 24 hours. Human cardiac cells were cultured for 24 hours either without or with relaxin (1-100 ng/ml). Untreated cells were incubated for the same 24 hour period under hypoxic (2% O2) conditions. Using 150 ng of total RNA for human VEGF and bFGF transcripts and 10 ng of total RNA for GAPDH transcripts, primer/probe sets were used to generate RT-PCR products for human VEGF 165aa and 121aa isoforns and human bFGF. Data were analyzed using Sequence Detector v1.6.3 software (Applied Biosystems/PE). VEGF and bFGF expression levels are graphed relative to GAPDH transcript levels. Data are shown as means±SEM, where n=3 per treatment group; *p<0.05; Student-Newman-Keuls test. […] Absolute baseline levels of bFGF mRNA transcripts expressed by these cells were approximately 2-fold greater than those of either the VEGF121 or the VEGF165 isoforms. Total RNA from cells incubated under hypoxic conditions was analyzed as a positive control for the stimulation of VEGF isoforms. […] Relaxin had no effect on cellular proliferation, as assessed by ^3H-thymidine incorporation, on cellular morphology, or on desmin or vimentin staining patterns.
# [1] = system: female Swiss Webster mice; test: Matrigel assay of angiogenesis; format: in vivo, mouse; settings: 100 ng/ml in Matrigel, s.c., three separate studies, vs vehicle
# Protocol: Animals were purchased from Harlan Sprague Dawley (Indianapolis, Ind.) and were housed according to NIH guidelines. Protocols were in compliance with institutional guidelines. Matrigel (Collaborative Biomedical, Bedford, Mass.) was mixed with relaxin to a final concentration of 100 ng/ml, or mixed with the identical volume of citrate buffer, on ice. […] was injected subcutaneously into the flank of female Swiss Webster mice. At 11 days, the Matrigel plugs were harvested, fixed, and stained with H & E (hematoxylin and eosin) for assessment of new blood vessel ingrowth. Vessel growth was scored on a 0-5 scale: 0=no infiltration; 1=minor infiltration; 2 =3-5 cell layers infiltrating only margins of the plug; 3=5-10 cell layers infiltrating margins with some areas of deeper infiltration; <25% of plug infiltrated; 4=Many areas of deep cellular infiltration; 25-50% of plug infiltrated; 5=50-100% of plug infiltrated. Endothelial cells preferentially migrate into the basement membrane matrix.
# The ability of relaxin to induce new blood vessel growth in vivo was tested in the murine Matrigel system for assessing angiogenesis. Passaniti et al. (1992) Lab. Invest. 67:519-528. […] At 10 days, Matrigel plugs were harvested, processed for histology, and H & E sections scored for vessel ingrowth in blinded fashion. […]
# small renal arteries = test: Myogenic reactivity of isolated small renal arteries, pressurized arteriograph; format: in vivo, rat; settings: female rats administered rhRLX for 5 days (FIG. 14)
# Excerpt: Myogenic reactivity is a dynamic and complex integrative vascular behavior which can be assessed in small renal arteries utilizing the pressurized arteriograph. Equivalent tone was first established in all vessels by constricting them to 75% of their baseline diameter at 60 mm Hg using the adrenergic agonist, phenylephrine. Next the arteries which began at an initial pressure of 20 mm Hg were subjected to a rapid increase in transmural pressure of 20 mm Hg increments in the absence of flow. […] This blunted myogenic reactivity following rhRLX treatment of nonpregnant rats mimics pregnancy (Gandley RE, Conrad KP, McLaughlin MK. Am J Physiol Integrative Comp Physiol 280:R1-R7, 2001). Morever, as during pregnancy, this blunted myogenic reactivity can be reversed by adding inhibitors of nitric oxide to the vessel bath.
# THP-1 cells = test: THP-1 cells: morphology, 3H-thymidine uptake, metalloproteinase expression; format: cell-based, human
# [2] = Baseline before Ringer's solution
# [3] = Ringer's solution 12.5 μl/min, 60 min
# [4] = Ringer's solution 12.5 μl/min, 120 min
# [5] = Ringer's solution 12.5 μl/min, 180 min
# [6] = Ringer's solution 12.5 μl/min, 240 min
substance,measurement,setting,value
"Porcine RLX: lyophilized, purified porcine relaxin (Sherwood and O'Byrne 1974), dissolved in Ringer's solution",ERPF,conscious rats; [2],"12,927"
same,ERVR,conscious rats; [2],5.93
same,GFR,conscious rats; [2],2997
same,MAP,conscious rats; [2],119
same,ERPF,conscious rats; [3],"12,630"
same,ERVR,conscious rats; [3],6.19
same,GFR,conscious rats; [3],3008
same,MAP,conscious rats; [3],123
same,ERPF,conscious rats; [4],"12,347"
same,ERVR,conscious rats; [4],6.40
same,GFR,conscious rats; [4],3086
same,MAP,conscious rats; [4],121
same,ERPF,conscious rats; [5],"12,353"
same,ERVR,conscious rats; [5],6.52
same,GFR,conscious rats; [5],3077
same,MAP,conscious rats; [5],122
same,ERPF,conscious rats; [6],"12,090"
same,ERVR,conscious rats; [6],6.53
same,GFR,conscious rats; [6],3223
same,MAP,conscious rats; [6],121
"rhRLX: recombinant human relaxin, identical in amino acid sequence to the product of the human H2 gene; A chain of 24, B chain of 29 amino acids","cellular proliferation, 3H-thymidine incorporation",human cardiac cells,no effect
same,vessel ingrowth into Matrigel plugs,[1],significantly more vessel ingrowth
same,myogenic reactivity ex vivo,small renal arteries,reduced myogenic reactivity
same,"morphological changes, such as adherence to plastic or aggregation",THP-1 cells,no observable morphological changes
